Test results as given in Sander's compilation of Henry's law constants (doi:10.1002/etc.5620111109).

test: Henry solubility constant Hcp at 293 K (mol/(m3 Pa)); details: reference: ten Hulscher et al. (1992)

Compound	Henry solubility constant Hcp at 293 K
Clc1cc(Cl)c(Cl)c(Cl)c1 [1,2,3,5-tetrachlorobenzene]	0.01
Clc1cccc(Cl)c1Cl [1,2,3-trichlorobenzene]	0.014
Clc1cc(Cl)cc(Cl)c1 [1,3,5-trichlorobenzene]	0.0052

test: Henry solubility constant Hcp at 298.15 K (mol/(m3 Pa)); details: reference: ten Hulscher et al. (1992)

Compound	Henry solubility constant Hcp
c1ccc2c(c1)-c1cccc3cccc-2c13 [benzo[jk]fluorene]	1.1
c1cc2ccc3ccc4ccc5cccc6c(c1)c2c3c4c56 [benzo[ghi]perylene]	30
Clc1ccc(Cl)c(-c2cc(Cl)ccc2Cl)c1 [2,2',5,5'-tetrachlorobiphenyl]	0.042
c1ccc2cc3c(cc2c1)-c1cccc2cccc-3c12 [benzo[k]fluoranthene]	17
c1ccc2c(c1)-c1ccc3ccc4cccc5cc-2c1c3c45 [indeno[1,2,3-cd]pyrene]	28
c1ccc2c(c1)cc1ccc3cccc4ccc2c1c34 [benzo[a]pyrene]	22
Clc1ccc(Cl)c(-c2ccccc2)c1 [2,5-dichlorobiphenyl]	0.023
c1ccc2c(c1)-c1cccc3c1c-2cc1ccccc13 [benzo[b]fluoranthene]	15
